We go through six molecules from patent US6794516B2, “Synthesis of clasto-lactacystin β-lactone and analogs thereof” (Millennium Pharmaceuticals, Inc., priority 1997, dated 2004).

Entries after “also recorded” stand apart in the source; their conditions may differ.

One data set has as its system C2C12 cells. Description: Inhibition of intracellular protein degradation in C2C12 cells. Particulars: for IC50: Mus musculus, C2C12 cells, 35S-methionine labelled, TCA soluble radioactivity. The format is cell-based, mouse. As to the method: C2C12 cells (a mouse myoblast line) were labeled for 48 hrs with ^35S-methionine. The cells were then washed and preincubated for 2 hrs in the same media supplemented with 2 mM unlabelled methionine. The media was removed and replaced with a fresh aliquot of the preincubation media containing 50% serum, and a concentration of the compound to be tested. The media was then removed and made up to 10% TCA and centrifuged. The TCA soluble radioactivity was counted. Inhibition of proteolysis was calculated as the percent decrease in TCA soluble radioactivity.

In data set [1] the target is T1, PA28-activated 20S proteasome (Homo sapiens, UniProt P28074).
T1 construct: from tissue
Nature of the data set: Inactivation of the chymotrypsin-like activity of PA28-activated 20S proteasome (Suc-Leu-Leu-Val-Tyr-AMC). The format is biochemical. Particulars: for kinact/KI: rate of enzyme inactivation, chymotrypsin-like activity of PA28-activated 20S proteasome, 37° C., pH 8.0, read-out: Kobs/[I]. As to the method:
Purification of 20S proteasome and proteasome activator PA28 was performed as previously described (Dick et al., J. Biol. Chem. 271:7273 (1996)).
2 mL of assay buffer (20 mM HEPES, 0.5 mM EDTA, pH 8.0) and Suc-Leu-Leu-Val-Tyr-AMC in dimethyl sulfoxide were added to a 3 mL fluorescent cuvette, and the cuvette was placed in the jacketed cell holder of a Hitachi F-2000 fluorescence spectrophotometer. The temperature was maintained at 37° C. by a circulating water bath. 0.34 mg of PA28 were added and the reaction progress was monitored by the increase in fluorescence at 440 nm (λex=380 nm) that accompanies production of free AMC. […] After reaching a steady state of substrate hydrolysis, lactacystin was added to a final concentration of […], and the reaction was monitored for 1 h. The fluorescence (F) versus time (t) data were collected on a microcomputer using LAB CALC (Galactic) software. kinact values were estimated by a nonlinear least-squares fit of the data to the first order equation:
where C=Ft=0 and A=Ft=∞−Ft=0.

Data set [2] in a line: Lactone hydrolysis to the dihydroxy acid. To be noted: for half-life at 200 mM: HEPES/EDTA buffer, pH 7.8.
Experimental: (§1) The half-lives (ti1/2) for hydrolysis of β-lactone analogs to the corresponding dihydroxy acids were measured at 37° C. at a concentration of 200 mM in 20 mM HEPES, 0.5 mM EDTA, pH 7.8. Absorbance was measured for at least five half-lives (approximately 1 hour) at 230 nm, the wavelength at which there is the greatest difference in extinction coefficients for the lactone and dihydroxy.
A short description of a further data set: physchem. To be noted: buffer, pH 7.8.
The next data set deals with Male Sprague Dawley rats. Nature of the data set: Middle cerebral artery (MCA) occlusion/reperfusion: infarct size and neurological score. Particulars: for infarct volume: rat MCA occlusion. The data set is classed as in vivo, rat. As to the method:
Male Sprague Dawley rats (250-400 g) were anesthetized with haloethane and subjected to middle cerebral artery (MCA) occlusion using a nylon filament for 2 h. Subsequently, the filament was removed and reperfusion of the infarcted tissue occurred for 24 hours before the rat was sacrificed.
Immediately after the filament was withdrawn, the animals were evaluated using a neurological scoring system. Neurological scores were expressed on a scale from 0 to 10, with 0 representing no neurological deficit and 10 representing severe neurological deficit. After 24 hours and before sacrifice, animals were evaluated a second time using the same neurological scoring system.
Staining of coronal sections (2.0 mm×7-8) with triphenyltetrazolium chloride (TTC) taken throughout the brain were evaluated under blinded conditions using image analysis to determine infarct size.
Rats were given i.v. bolus injections (1.0 mL/kg) of either vehicle (50% propylene glycol/saline; n=8) or 7-n-propyl-clasto-lactacystin β-lactone (3b) (0.3 mg/kg; n=7) at 2 hours after the start of the occlusion. Two additional groups of rats were given i.v. bolus injections (1.0 mL/kg) of 3b at 0 minutes, 2 hours, and 6 hours after the start of the occlusion. One group (0.1 mg/kg×3; n=6) received 0.1 mg/kg at each of these times, while another group (0.3 mg/kg×3; n=7) received 0.3 mg/kg at each of the three timepoints.

Experimental for physchem: as §1

A word on the IC50: it is the concentration that gives 50% inhibition. As a reminder, the half-life is how long it takes for the measured level to halve. A high value points to slow decline. As for `CCCC[C@H]1C(=O)N[C@@]2([C@@H](O)C(C)C)C(=O)O[C@@H]12` [Compound 3c], the IC50 in the data set with C2C12 cells came out at 330 nM. In addition, in data set [1], the kinact/KI was determined as 38000 M⁻¹ s⁻¹. Also, the half-life at 200 mM in data set [2] amounted to 17 min.
As to `CO[C@H]1C(=O)N[C@@]2([C@@H](O)C(C)C)C(=O)O[C@@H]12` [Compound 3f], in the data set with C2C12 cells, the half-maximal inhibitory concentration (IC50) was determined as 86000 nM. Further, the “relative potency in cell culture” value in the data set with C2C12 cells (compared to 2) is “less potent than 2; also recorded: much weaker activity”. For the same molecule, the “relative potency in the enzyme assay” value in data set [1] (compared to the other compounds of Table 1 / to 2) is “most potent”. In addition, the kinact/KI in data set [1] came out at 82200 M⁻¹ s⁻¹. This molecule also gave a half-life at 200 mM in data set [2] of 3.7 min. Further, in data set [2] (compared to 2), the “relative hydrolysis rate” value was “more rapidly hydrolyzed”.
With `CC[C@H]1C(=O)N[C@@]2([C@@H](O)C(C)C)C(=O)O[C@@H]12` [Compound 3a], in the data set on C2C12 cells, the IC50 was determined as 320 nM. Also, the kinact/KI in data set [1] stood at 39000 M⁻¹ s⁻¹. Also, in data set [2], the half-life at 200 mM was determined as 15.3 min.
The corresponding values for `CC(C)C[C@H]1C(=O)N[C@@]2([C@@H](O)C(C)C)C(=O)O[C@@H]12` [Compound 3d] are 510 nM, 17000 M⁻¹ s⁻¹ and 16.8 min.
Regarding `CC(C)[C@H](O)[C@@]12NC(=O)[C@H](C)[C@@H]1OC2=O` [Compound 2, clasto-lactacystin β-lactone], the IC50 in the data set with C2C12 cells lay within 700 to 1100 nM. Besides, the half-life at 200 mM in “physchem” came to 13 min. The kinact/KI in data set [1] amounted to 20000 M⁻¹ s⁻¹.
Take `CCC[C@H]1C(=O)N[C@@]2([C@@H](O)C(C)C)C(=O)O[C@@H]12` [Compound 3b, 7-n-propyl-clasto-lactacystin β-lactone]: the IC50 in the data set on C2C12 cells was 290 nM. Moreover, the kinact/KI in data set [1] was determined as 46500 M⁻¹ s⁻¹. Also, the neurological score result in the data set on Male Sprague Dawley rats (i.v. 0.1 mg/kg×3 dosage group) and in the data set with Male Sprague Dawley rats (i.v. 0.3 mg/kg×3 dosage group) was “No significant improvement” throughout. For the same molecule, the “infarct volume decreased by” value in the data set with Male Sprague Dawley rats (rat MCA occlusion 2 h, reperfusion 24 h, single i.v. dose 0.3 mg/kg at 2 hours after start of occlusion) worked out at 50%. Also, the infarct volume entry is reported as “not significantly decreased” with Male Sprague Dawley rats (i.v. 0.1 mg/kg×3 (0 minutes, 2 hours, 6 hours)) and “not significantly decreased” in the data set on Male Sprague Dawley rats (i.v. 0.3 mg/kg×3 (0 minutes, 2 hours, 6 hours)). Also, the “mean neurological score at 24 hours” value in the data set on Male Sprague Dawley rats (scale 0 to 10 (10 = severe deficit), single i.v. 0.3 mg/kg dose, vehicle 8.7±0.6) stood at 4±1. Also, the neurological improvement in the data set with Male Sprague Dawley rats (single i.v. 0.3 mg/kg dose, versus vehicle at 24 hours) is listed as 60%. The molecule also displayed a half-life at 200 mM in data set [2] of 15.3 min.
